Test system: human telomeric G-quadruplex (139-nt GQ strand) in DNA origami nanobowl (DNA, G4) TTACCTTTCCCCTCTGGCAAAACTATTCCGGTAAACTTAGGGTTAGGGTTAGGGTTAGGGTTATTTTTTTTATTTCTTCAGGCTTAACCATGCATTCCGATTGCAGCTTGCATCCATTGCATCGCTTGAATTGTCCAGC
Assay: optical tweezers mechanical unfolding, force populations
Details: 100 mM KCl, 10 mM MgCl2; 20 mM Tris pH 7.8, 1 mM EDTA; free PDS 20-500 nM; bound populations outside and inside nanobowl rise

- binding: yes
SMILES: NCCOc1cc(C(=O)Nc2cc(OCCN)c3ccccc3n2)nc(C(=O)Nc2cc(OCCN)c3ccccc3n2)c1

Source: article PMC8789071 (2022)
